Reference: the supplement of paper PMC11451515

Columns and labels:
[1] = test system: NOMO1; assay: AUC of viability dose-response curve (% viability x log10 dose units); higher = less sensitive; conditions: 48 h
Outline: (§1)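 Viability of medium-adapted leukemia cells was measured by CellTiter-Glo One luminescence after 48 h at 37°C with library compounds in DMSO. Doses were 11 threefold steps from 47 μM to 0.79 nM, in 1536-well plates at 500 or 1000 cells/well. Signals were normalised per plate to DMSO and cell-free wells and fitted with a four-parameter log-logistic model on log10 dose. Area under the curve was integrated by trapezoidal rule, with curves exceeding full viability scaled and failed quality-control curves removed.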

[2] = test system: P12-Ichikawa; assay: as above; conditions: 48 h
Outline: as §1

[3] = test system: SEM cells; assay: as above; conditions: 48 h
Outline: as §1

[4] = test system: SEM cells; assay: cell viability relative to DMSO control; higher = less cytotoxic; conditions: 48 h
Outline: (§2)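 Library compounds in DMSO were pin-dosed into 1536-well plates (5 μl) holding NOMO1 or SEM (500 cells/well) or P12-Ichikawa (1000 cells/well) leukemia cells, across an 11-point threefold series of 47 μM to 0.79 nM. Each cell line had been adapted for at least four passages in each medium. CellTiter-Glo One luminescence was read after 48 h at 37°C. Viability is the per-plate percentage relative to DMSO wells, with cell-free wells as background.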

[5] = test system: NOMO1; assay: as above; conditions: HPLM + 10% dialyzed FBS, 48 h
Outline: as §2

[6] = test system: P12-Ichikawa; assay: as above; conditions: 48 h
Outline: as §2

Cn1c(CCCC(=O)O)nc2cc(N(CCCl)CCCl)ccc21
AUC of viability dose-response curve
Conditions | [1] | [2] | [3]
HPLM + 10% dialyzed FBS | 452 | 438 | 456
RPMI 5 mM glucose + 10% FBS | 441 | 457 | 414
RPMI 5 mM glucose + 10% dialyzed FBS | 453 | 451 | 447

C/C=C(/C(=C/C)c1ccc(O)cc1)c1ccc(O)cc1
AUC of viability dose-response curve
Conditions | [1] | [2] | [3]
HPLM + 10% dialyzed FBS | 464 | 469 | 464
RPMI 5 mM glucose + 10% FBS | 431 | 465 | 467
RPMI 5 mM glucose + 10% dialyzed FBS | 457 | 465 | 465

CCCN[S+](=O)([O-])Nc1ncnc(OCCOc2ncc(Br)cn2)c1-c1ccc(Br)cc1
[4], HPLM + 10% dialyzed FBS
Conditions | cell viability [%]
0.000781 µM | 125
0.00234 µM | 120
0.00702 µM | 123
0.0211 µM | 120
0.0632 µM | 123
0.19 µM | 137
0.569 µM | 123
1.71 µM | 123
5.12 µM | 124
15.4 µM | 131
46.1 µM | 88.8

AUC of viability dose-response curve
Conditions | [1] | [2] | [3]
HPLM + 10% dialyzed FBS | 442 | 457 | 470
RPMI 5 mM glucose + 10% FBS | 468 | 431 | 468
RPMI 5 mM glucose + 10% dialyzed FBS | 468 | 452 | 429

Cl.O[C@@H](CNC[C@H](O)[C@H]1CCc2cc(F)ccc2O1)[C@@H]1CCc2cc(F)ccc2O1
AUC of viability dose-response curve
Conditions | [1] | [2] | [3]
HPLM + 10% dialyzed FBS | 439 | 465 | 450
RPMI 5 mM glucose + 10% FBS | 446 | 441 | 444
RPMI 5 mM glucose + 10% dialyzed FBS | 415 | 448 | 455

CCN(CC)CCOC1=CC=C(NC2=NC=C3\C=C(/C(=O)N(C)C3=N2)C4=C(Cl)C=CC=C4Cl)C=C1
Conditions | AUC of viability dose-response curve | cell viability [%]
[1], HPLM + 10% dialyzed FBS | 343 | –
[1], RPMI 5 mM glucose + 10% FBS | 359 | –
[1], RPMI 5 mM glucose + 10% dialyzed FBS | 355 | –
[2], HPLM + 10% dialyzed FBS | 371 | –
[2], RPMI 5 mM glucose + 10% FBS | 365 | –
[2], RPMI 5 mM glucose + 10% dialyzed FBS | 367 | –
[5], 0.000781 µM | – | 116
[5], 0.00234 µM | – | 138
[5], 0.00702 µM | – | 121
[5], 0.0211 µM | – | 115
[5], 0.0632 µM | – | 108
[5], 0.19 µM | – | 96.4
[5], 0.569 µM | – | 97.5
[5], 1.71 µM | – | 80.5
[5], 5.12 µM | – | 16.1
[5], 15.4 µM | – | 10.1
[5], 46.1 µM | – | 2.65

cell viability [%]
Conditions | HPLM + 10% dialyzed FBS | RPMI 5 mM glucose + 10% FBS | RPMI 5 mM glucose + 10% dialyzed FBS
[4], 0.000781 µM | 94.9 | 78.3 | 92.5
[4], 0.00234 µM | 101 | 67.6 | 102
[4], 0.00702 µM | 105 | 74.7 | 106
[4], 0.0211 µM | 74.5 | 52.1 | 68.3
[4], 0.0632 µM | 67.9 | 48.6 | 76.1
[4], 0.19 µM | 58.4 | 44.8 | 69.1
[4], 0.569 µM | 56.8 | 38.2 | 61.1
[4], 1.71 µM | 56 | 45.8 | 59.8
[4], 5.12 µM | 10.9 | 11.7 | 13.5
[4], 15.4 µM | 6.61 | 7.2 | 8.59
[4], 46.1 µM | 4.15 | 2.88 | 3.75
[6], 0.000781 µM | 107 | 122 | 118
[6], 0.00234 µM | 114 | 120 | 124
[6], 0.00702 µM | 109 | 118 | 122
[6], 0.0211 µM | 84.8 | 85.2 | 94.6
[6], 0.0632 µM | 111 | 109 | 109
[6], 0.19 µM | 96.5 | 101 | 96.9
[6], 0.569 µM | 99.6 | 113 | 111
[6], 1.71 µM | 109 | 106 | 113
[6], 5.12 µM | 21.8 | 13.3 | 12.1
[6], 15.4 µM | 5.01 | 4.01 | 4.8
[6], 46.1 µM | 4.01 | 6.43 | 6.66

CC1(C)S[C@H]2[C@H](NC(=O)[C@@H](N)C3=CC=C(O)C=C3)C(=O)[N@]2[C@H]1C(O)=O
AUC of viability dose-response curve
Conditions | [1] | [2] | [3]
HPLM + 10% dialyzed FBS | 383 | 394 | 456
RPMI 5 mM glucose + 10% FBS | 394 | 394 | 441
RPMI 5 mM glucose + 10% dialyzed FBS | 393 | 383 | 461

CCC(=O)O[C@@]1([C@H](C)C[C@H]2[C@@H]3C[C@H](F)\C4=C\C(=O)\C=C/[C@]4(C)[C@@]3(F)[C@@H](O)C[C@]12C)C(=O)SCF
cell viability [%]
Conditions | HPLM + 10% dialyzed FBS | RPMI 5 mM glucose + 10% FBS | RPMI 5 mM glucose + 10% dialyzed FBS
[4], 0.000781 µM | 96.6 | 94.2 | 98.1
[4], 0.00234 µM | 102 | 103 | 124
[4], 0.00702 µM | 94.7 | 88.6 | 83.6
[4], 0.0211 µM | 68 | 67.8 | 73.5
[4], 0.0632 µM | 60.6 | 53.2 | 40.5
[4], 0.19 µM | 13.1 | 13.1 | 11.7
[4], 0.569 µM | 66.1 | 68.6 | 58.8
[4], 1.71 µM | 79.4 | 73 | 63.4
[4], 5.12 µM | 64.9 | 68.6 | 60.6
[4], 15.4 µM | 61.9 | 59.5 | 53.3
[4], 46.1 µM | 58 | 59.6 | 53.4
[6], 0.000781 µM | 101 | 120 | 95.9
[6], 0.00234 µM | 112 | 119 | 100
[6], 0.00702 µM | 88 | 86.3 | 71.3
[6], 0.0211 µM | 75.6 | 76.5 | 55.5
[6], 0.0632 µM | 69.2 | 74.7 | 54.4
[6], 0.19 µM | 64.8 | 68.8 | 55.1
[6], 0.569 µM | 70.6 | 68.2 | 53.6
[6], 1.71 µM | 71.5 | 58.9 | 49.6
[6], 5.12 µM | 65.9 | 59.2 | 51.1
[6], 15.4 µM | 69.8 | 55.1 | 48.6
[6], 46.1 µM | 66.2 | 59.9 | 46.7

AUC of viability dose-response curve
Conditions | [1] | [2] | [3]
HPLM + 10% dialyzed FBS | 455 | 342 | 328
RPMI 5 mM glucose + 10% FBS | 465 | 292 | 325
RPMI 5 mM glucose + 10% dialyzed FBS | 439 | 290 | 280

CCN1CCN(Cc2ccc(-c3cc4c(N[C@H](C)c5ccccc5)ncnc4[nH]3)cc2)CC1
[4], HPLM + 10% dialyzed FBS
Conditions | cell viability [%]
0.000781 µM | 130
0.00234 µM | 124
0.00702 µM | 125
0.0211 µM | 132
0.0632 µM | 116
0.19 µM | 116
0.569 µM | 109
1.71 µM | 98.5
5.12 µM | 74.7
15.4 µM | 51.1
46.1 µM | 8.14

AUC of viability dose-response curve
Conditions | [1] | [2] | [3]
HPLM + 10% dialyzed FBS | 439 | 448 | 384
RPMI 5 mM glucose + 10% FBS | 460 | 463 | 375
RPMI 5 mM glucose + 10% dialyzed FBS | 457 | 461 | 388
